The values that follow come from paper PMC3753754, “Andrographis paniculata Extract and Andrographolide Modulate the Hepatic Drug Metabolism System and Plasma Tolbutamide Concentrations in Rats” (Evidence-based Complementary and Alternative Medicine : eCAM, 2013).

A short description of data set [1]: Plasma tolbutamide concentration in high-fat diet-induced obese mice. The format is in vivo, C57BL/6 mice. The settings on record: C57BL/6, mouse, 2 h after dosing 20 mg/kg oral tolbutamide, control obese mice (methyl cellulose vehicle). On the procedure: Eleven-month-old high-fat diet-fed (45% of energy from fat; Research Diet Inc., New Brunswick, NJ) C57BL/6 mice were obtained from the National Health Research Institute (Miaoli, Taiwan). Control mice were orally administered 0.5% methyl cellulose (10 mL/kg). […] After the 5th daily dose, the mice were deprived of food overnight. On day 6, a 20 mg/kg oral dose of tolbutamide, as a solution in Cremophor EL/ethanol/water (30/10/60, v/v/v), was administered to each mouse. Thirty minutes later, a 1 g/kg dose of glucose, as a solution in water, was administered orally according to the method described by Zong et al.. Serial blood samples were collected up to 8 h after the glucose dose from each mouse. The animals were then killed by exsanguination and the livers collected.
Tolbutamide was prepared in a solution of Cremophor EL/ethanol/water (30/10/60, v/v/v). […]
The HPLC system consisted of an Agilent 1100 series LC System (Palo Alto, CA) and an Agilent Zorbax Eclipse XDB-C8 column (3 μm, 3.0 mm × 150 mm), interfaced to an Agilent MSD mass spectrometer equipped with an electrospray ionization source. […] The positive ion of the testing compound was selected, and the peak size was measured. The area under the plasma tolbutamide concentration versus time curve (AUC) was calculated by using the trapezoidal method.

Data set [2] in a line: Pharmacokinetics of tolbutamide in control, APE-pretreated and andrographolide-pretreated rats. The class given is in vivo, Sprague-Dawley rats. The settings on record: male, Sprague-Dawley, rat, plasma, control rats (methyl cellulose vehicle for 5 days), tolbutamide 20 mg/kg oral. How it is done: Seven-week-old male Sprague-Dawley rats cannulated in the jugular vein were purchased from the Bio LASCO Experimental Animal Center (Taipei, Taiwan). The animals were fed a standard rat diet and were randomly assigned into control, APE-treated, and andrographolide-treated groups (n = 5). Rats were housed in plastic cages in a room kept at 23 ± 1°C and 60 ± 5% relative humidity with a 12-hour light and dark cycle. Food and drinking water were available ad libitum. Control rats were orally administered methyl cellulose. […] After the 5th daily dose, rats were deprived of food overnight. On day 6, a 20 mg/kg oral dose of tolbutamide, as a solution in Cremophor EL (polyoxyl 35 hydrogenated castor oil, Sigma)/ethanol/water (30/10/60, v/v/v), was administered to each rat. After the administration of tolbutamide, serial blood samples were collected up to 12 h after dosing from each rat. The animals were then killed by exsanguination, and the livers were collected.
Tolbutamide was prepared in a solution of Cremophor EL/ethanol/water (30/10/60, v/v/v). After administration, blood samples (~200 μL) were collected from the tail vein of each rat at 0.25, 0.5, 1, 2, 4, 8, and 12 h after dosing. Plasma was separated from blood by centrifugation (4000 ×g for 20 min at 4°C). An aliquot of 50 μL plasma was mixed with 100 μL acetonitrile and then centrifuged at 10,000 ×g for 15 min at 4°C. The supernatant was used to determine the concentration of tolbutamide by LC/MS. Calibration standards of tolbutamide were prepared by serial dilution of a tolbutamide stock solution with blank plasma, yielding final concentrations of tolbutamide ranging from 1 to 300 μg/mL of plasma.
The HPLC system consisted of an Agilent 1100 series LC System (Palo Alto, CA) and an Agilent Zorbax Eclipse XDB-C8 column (3 μm, 3.0 mm × 150 mm), interfaced to an Agilent MSD mass spectrometer equipped with an electrospray ionization source. Column temperature was set at 25°C. The initial mobile phase composition was 30% acetonitrile containing 10 mM ammonium acetate (solvent A) and 70% of 0.1% formic acid (solvent B). The following gradient system was used: 30% A to 50% A (0-1 min), 50% A to 98% A (1–3 min), 98% A (3–9 min), 98% A to 30% A (9-10 min), and 30% A (10–15 min). The flow rate was 0.5 mL/min. Sample injection volume was 10 μL. The MS data acquisition was via selected ion monitoring. The positive ion of the testing compound was selected, and the peak size was measured. The area under the plasma tolbutamide concentration versus time curve (AUC) was calculated by using the trapezoidal method.

The structures appear in SMILES notation.

In turn, `CCCCNC(=O)NS(=O)(=O)c1ccc(C)cc1` [tolbutamide] registered a concentration at 2 h in data set [1] of 124 ± 32 µg/mL. Moreover, in data set [2], the MRT was 7.9 ± 1.6 h. Besides, in data set [2] (read-out: AUC0–12 h of plasma tolbutamide), the AUC(0-t) is 1390 ± 262 µg·h/mL. The Cmax in data set [2] (read-out: C max of tolbutamide) is 151 ± 21 µg/mL. Moreover, the Tmax in data set [2] (read-out: T max of tolbutamide) is 1.6 ± 0.5 h.
